Source: patent publication US6737383B1, “Herbicidal oxadiazolidines” (priority 1999, dated 2004)

Key:
cocklebur = assay: Test B pre/postemergence cocklebur; type: in vivo, Xanthium strumarium
In short: (§1)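 Test chemicals in a non-phytotoxic solvent mixture with surfactant were sprayed preemergence onto planted seeds and postemergence onto plants 2 to 18 cm tall (1- to 4-leaf stage). After twelve to sixteen days in a greenhouse, injury was visually rated against untreated controls from 0 (no effect) to 10 (complete control).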

corn = assay: Test B pre/postemergence corn; type: in vivo, Zea mays
In short: as §1

crabgrass = assay: Test B pre/postemergence crabgrass; type: in vivo, Digitaria sanguinalis
In short: as §1

giant foxtail = assay: Test B pre/postemergence giant foxtail; type: in vivo, Setaria faberii
In short: as §1

morningglory = assay: Test B pre/postemergence morningglory; type: in vivo, Ipomoea hederacea
In short: as §1

pigweed = assay: Test B pre/postemergence pigweed; type: in vivo, Amaranthus retroflexus
In short: as §1

rape = assay: Test B pre/postemergence rape; type: in vivo, Brassica napus
In short: as §1

soybean = assay: Test B pre/postemergence soybean; type: in vivo, Glycine max
In short: as §1

sugar beet = assay: Test B pre/postemergence sugar beet; type: in vivo, Beta vulgaris; settings: for Plant response rating, Sugarbeets: Rate 250 g/ha
In short: as §1

velvetleaf = assay: Test B pre/postemergence velvetleaf; type: in vivo, Abutilon theophrasti; settings: for Plant response rating, Velvetleaf: Rate 250 g/ha
In short: as §1

wheat = assay: Test B pre/postemergence wheat; type: in vivo, Triticum aestivum; settings: for Plant response rating, Wheat: Rate 250 g/ha
In short: as §1

wild oat = assay: Test B pre/postemergence wild oat; type: in vivo, Avena fatua; settings: for Plant response rating, Wild oats: Rate 250 g/ha
In short: as §1

purple nutsedge = assay: Test B pre/postemergence purple nutsedge; type: in vivo, Cyperus rotundus
In short: as §1

rice = assay: Test B flood test rice; type: in vivo, Oryza sativa
In short: (§2)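 Each value is a visual injury score relative to controls, with 10 meaning complete control and 0 no effect. Evaluation took place twelve to sixteen days after the 2-leaf-stage plants were treated and kept in the greenhouse.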

duck salad = assay: Test B flood test duck salad; type: in vivo, Heteranthera limosa
In short: as §2

bamyardgrass = assay: Test B flood test barnyardgrass; type: in vivo, Echinochloa crus-galli
In short: as §2

[1] = Postemergence, Rate 125 g/ha, scale of 0 to 10 where 0 is no effect and 10 is complete control
[2] = Postemergence, Rate 250 g/ha, scale 0 to 10, 0 no effect, 10 complete control
[3] = Preemergence, Rate 62 g/ha, scale 0 to 10 (0 no effect, 10 complete control)
[4] = Preemergence, Rate 125 g/ha, scale 0 to 10 (0 no effect, 10 complete control)
[5] = Preemergence, Rate 250 g/ha, scale of 0 to 10 where 0 is no effect and 10 is complete control
[6] = Preemergence, Rate 500 g/ha, scale 0 to 10 (0 no effect, 10 complete control)
[7] = Rate 62 g/ha, Postemergence, scale of 0 to 10 where 0 is no effect and 10 is complete control
[8] = Rate 500 g/ha, Postemergence, scale 0 to 10, 0 no effect, 10 complete control
[9] = Rate 250 g/ha, Postemergence, scale 0 to 10, 0 is no effect, 10 is complete control
[10] = Preemergence, Rate 125 g/ha, 0 is no effect, 10 is complete control
[11] = Preemergence, scale of 0 to 10 where 0 is no effect and 10 is complete control
[12] = Postemergence, scale 0 to 10, 0 is no effect, 10 is complete control
[13] = Postemergence (flood test species), Rate 125 g/ha, scale of 0 to 10 where 0 is no effect and 10 is complete control
[14] = Rate 62 g/ha, Postemergence section, flood test species, scale of 0 to 10 where 0 is no effect and 10 is complete control
[15] = Rate 250 g/ha, headed Pre-emergence (flood test species), scale 0 to 10 (0 no effect, 10 complete control)
[16] = Rate 500 g/ha, headed Pre-emergence (flood test species), scale 0 to 10 (0 no effect, 10 complete control)
[17] = Rate 500 g/ha, listed under Postemergence (flood test species), scale 0 to 10, 0 no effect, 10 complete control
[18] = Rate 1000 g/ha, Pre-emergence (as headed), scale 0 to 10
[19] = Rate 2000 g/ha, Pre-emergence (as headed), scale 0 to 10
[20] = flood test, listed under Postemergence, Rate 250 g/ha, scale 0 to 10, 0 no effect, 10 complete control

CCn1c(=O)on(C(=O)N(c2ccc(F)cc2F)C(C)C)c1=O [Compound 116]
2: Corn plant response rating (corn; [2]) | Plant response rating, Corn (corn; [4]) | Morningglory plant response rating (morningglory; [7]) | Sugarbeets plant response rating (sugar beet; [7])
3: Cocklebur plant response rating (cocklebur; [2]) | Soybean plant response rating (soybean; [7]) | Sugarbeets plant response rating (sugar beet; [1]) | Wheat plant response rating (wheat; [3]) | Wild oats plant response rating (wild oat; [7])
6: Plant response rating, Corn (corn; [5]) | Rape plant response rating (rape; [3]) | Soybean plant response rating (soybean; [1]) | Plant response rating, Soybean (soybean; [9]) | Wheat plant response rating (wheat; [1])
7: Corn plant response rating (corn; [8]) | Morningglory plant response rating (morningglory; [8]) | Plant response rating, Soybean (soybean; [4]) | Plant response rating, Velvetleaf (velvetleaf; [12]) | Plant response rating, Wheat (wheat; [12]) | Wild oats plant response rating (wild oat; [1]) | Wild oats plant response rating (wild oat; [3]) | Wild oats plant response rating (0 to 10 scale) (wild oat; [10]) | Plant response rating, Wild oats (wild oat; [12]) | Nutsedge plant response rating (purple nutsedge; [1])
9: Corn plant response rating (corn; [6]) | Crabgrass plant response rating (crabgrass; [1]) | Crabgrass plant response rating (crabgrass; [2]) | Crabgrass plant response rating (crabgrass; [7]) | Crabgrass plant response rating (crabgrass; [8]) | Giant foxtail plant response rating (giant foxtail; [1]) | Giant foxtail plant response rating (giant foxtail; [2]) | Giant foxtail plant response rating (giant foxtail; [7]) | Giant foxtail plant response rating (giant foxtail; [8]) | Plant response rating, Rape (rape; [4]) | Rape plant response rating (rape; [8]) | Plant response rating, Soybean (soybean; [5]) | Soybean plant response rating (soybean; [6]) | Sugarbeets plant response rating (sugar beet; [3]) | Velvetleaf plant response rating (0 to 10 scale) (velvetleaf; [10]) | Nutsedge plant response rating (purple nutsedge; [8]) | Barnyardgrass plant response rating (bamyardgrass; Rate 2000 g/ha, Pre-emergence (as headed), scale 0 to 10, 0 no effect, 10 complete control)
5: Cocklebur plant response rating (cocklebur; [6]) | Cocklebur plant response rating (cocklebur; [8]) | Wheat plant response rating (0 to 10 scale) (wheat; [10]) | Nutsedge plant response rating (purple nutsedge; [7])
4: Morningglory plant response rating (morningglory; [1]) | Morningglory plant response rating (morningglory; [2]) | Plant response rating, Morningglory (morningglory; [5]) | Velvetleaf plant response rating (velvetleaf; [1]) | Velvetleaf plant response rating (velvetleaf; [7]) | Rice plant response rating (rice; [19]) | Barnyardgrass plant response rating (bamyardgrass; [17])
0: Cocklebur plant response rating (cocklebur; [1]) | Cocklebur plant response rating (cocklebur; [3]) | Plant response rating, Cocklebur (cocklebur; [4]) | Plant response rating, Cocklebur (cocklebur; [5]) | Cocklebur plant response rating (cocklebur; [7]) | Corn plant response rating (corn; [1]) | Corn plant response rating (corn; [3]) | Corn plant response rating (corn; [7]) | Morningglory plant response rating (morningglory; [3]) | Plant response rating, Morningglory (morningglory; [4]) | Redroot pigweed plant response rating (pigweed; [1]) | Redroot pigweed plant response rating (pigweed; [7]) | Rape plant response rating (rape; [1]) | Rape plant response rating (rape; [7]) | Soybean plant response rating (soybean; [3]) | Wheat plant response rating (wheat; [7]) | Nutsedge plant response rating (purple nutsedge; [3]) | Plant response rating, Nutsedge (purple nutsedge; [4]) | Plant response rating, Nutsedge (purple nutsedge; [5]) | Nutsedge plant response rating (purple nutsedge; [6]) | Rice plant response rating (rice; [13]) | Rice plant response rating (rice; [14]) | Plant response rating, Rice (rice; Rate 250 g/ha, Postemergence (flood test), scale 0 to 10, 0 is no effect, 10 is complete control) | Rice plant response rating (rice; [15]) | Plant response rating, Rice (rice; [16]) | Rice plant response rating (rice; [17]) | Rice plant response rating (rice; [18]) | Ducksalad plant response rating (duck salad; [13]) | Ducksalad plant response rating (duck salad; [14]) | Ducksalad plant response rating (duck salad; [15]) | Plant response rating, Ducksalad (duck salad; [16]) | Ducksalad plant response rating (duck salad; [17]) | Ducksalad plant response rating (duck salad; [20]) | Barnyardgrass plant response rating (bamyardgrass; Postemergence, Rate 62 g/ha, scale 0 to 10, 0 is no effect, 10 is complete control) | Barnyardgrass plant response rating (bamyardgrass; Rate 125 g/ha, Postemergence section (flood test species), scale 0 to 10, 0 no effect, 10 complete control) | Barnyardgrass plant response rating (bamyardgrass; [15]) | Plant response rating, Barnyardgrass (bamyardgrass; [16]) | Barnyardgrass plant response rating (bamyardgrass; [18]) | Barnyardgrass plant response rating (bamyardgrass; [20])
10: Plant response rating, Crabgrass (crabgrass; [4]) | Plant response rating, Crabgrass (crabgrass; [5]) | Crabgrass plant response rating (crabgrass; [6]) | Giant foxtail plant response rating (giant foxtail; [3]) | Plant response rating, Giant foxtail (giant foxtail; [4]) | Plant response rating, Giant foxtail (giant foxtail; [5]) | Giant foxtail plant response rating (giant foxtail; [6]) | Redroot pigweed plant response rating (pigweed; [3]) | Plant response rating, Redroot pigweed (pigweed; [4]) | Plant response rating, Redroot pigweed (pigweed; [5]) | Redroot pigweed plant response rating (pigweed; [6]) | Plant response rating, Rape (rape; [5]) | Rape plant response rating (rape; [6]) | Sugarbeets plant response rating (0 to 10 scale) (sugar beet; [10]) | Plant response rating, Sugarbeets (sugar beet; [11]) | Sugarbeets plant response rating (sugar beet; [6]) | Plant response rating, Velvetleaf (velvetleaf; [11]) | Velvetleaf plant response rating (velvetleaf; [6]) | Plant response rating, Wild oats (wild oat; [11]) | Wild oats plant response rating (wild oat; [6])
8: Crabgrass plant response rating (crabgrass; [3]) | Morningglory plant response rating (morningglory; [6]) | Plant response rating, Redroot pigweed (pigweed; [9]) | Redroot pigweed plant response rating (pigweed; [8]) | Rape plant response rating (rape; [2]) | Soybean plant response rating (soybean; [8]) | Plant response rating, Sugarbeets (sugar beet; [12]) | Sugarbeets plant response rating (sugar beet; [8]) | Velvetleaf plant response rating (velvetleaf; [3]) | Velvetleaf plant response rating (velvetleaf; [8]) | Plant response rating, Wheat (wheat; [11]) | Wheat plant response rating (wheat; [6]) | Wheat plant response rating (wheat; [8]) | Wild oats plant response rating (wild oat; [8]) | Nutsedge plant response rating (purple nutsedge; [2]) | Ducksalad plant response rating (duck salad; [19])
1: Ducksalad plant response rating (duck salad; [18])
